Data: the supplement of paper PMC9663587

Columns and labels:
Test in all cases: GRmax, 72 h; higher = less effect;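 note: breast cell lines in 384-well plates, nine doses across a 10^4 range, Dye Drop imaging of viable cells vs DMSO and time-zero plates, GR 0 means no net growth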
[1] = test system: CAL51
[2] = test system: CAMA1
[3] = test system: EFM19
[4] = test system: HCC202
[5] = test system: HTERT_HME1
[6] = test system: MDAMB231
[7] = test system: MDAMB361
[8] = test system: PDX1328
[9] = test system: SUM1315
[10] = test system: SUM229PE
[11] = test system: T47D

Structure (SMILES) | GRmax, 72 h [1] [GR] | GRmax, 72 h [2] [GR] | GRmax, 72 h [3] [GR] | GRmax, 72 h [4] [GR] | GRmax, 72 h [5] [GR] | GRmax, 72 h [6] [GR] | GRmax, 72 h [7] [GR] | GRmax, 72 h [8] [GR] | GRmax, 72 h [9] [GR] | GRmax, 72 h [10] [GR] | GRmax, 72 h [11] [GR]
CCCCOc1c(C(=O)c2c(F)cc(C)cc2F)c[nH]c2nncc1-2 (max 10 µM) | 0.28 | -0.0904 | 0.188 | 0.384 | -0.0276 | 0.227 | 0.216 | 0.773 | -0.296 | 0.0454 | 0.0035
C[C@@H]1COCCN1c1cc(C2([S@](C)(=N)=O)CC2)nc(-c2cc[nH]c3nccc2-3)n1 [AZD6738] (max 10 µM) | 0.0335 | 0.25 | 0.845 | 0.383 | 0.287 | 0.354 | -0.166 | 0.299 | -0.169 | -0.0688 | 0.745
CCN1CCN(Cc2ccc(Nc3ncc(F)c(-c4cc(F)c5nc(C)n(C(C)C)c5c4)n3)nc2)CC1 (max 10 µM) | -0.464 | 0.222 | 0.267 | 0.3 | 0.0156 | -0.487 | -0.342 | -0.65 | -0.144 | 0.146 | -0.0412
Cc1cc(Nc2ncc(Cl)c(Nc3ccccc3S(=O)(=O)C(C)C)n2)c(OC(C)C)cc1C1CCNCC1 [Ceritinib/LDK378] (max 10 µM) | -0.476 | -0.699 | -0.258 | -0.803 | -0.356 | -0.333 | -0.991 | -0.943 | -0.765 | 0.336 | -0.855
COc1cc2c(Oc3ccc4[nH]c(C)cc4c3F)ncnc2cc1OCCCN1CCCC1 [Cediranib/AZD2171] (max 10 µM) | -0.103 | -0.292 | 0.685 | 0.364 | 0.0275 | -0.362 | -0.98 | -0.544 | -0.228 | 0.18 | -0.64
CNCc1ccc(-c2[nH]c3cc(F)cc4c3c2CCNC4=O)cc1 [Rucaparib] (max 10 µM) | 0.704 | 0.789 | 0.96 | 0.523 | 0.785 | 0.634 | 0.11 | 0.634 | 0.0259 | 0.888 | 0.854
NC(=O)Nc1cc(-c2cccc(F)c2)sc1C(=O)N[C@H]1CCCNC1 [AZD7762] (max 10 µM) | -0.519 | -0.0865 | -0.149 | -0.277 | -0.478 | -0.463 | -0.675 | -0.578 | -0.653 | -0.357 | -0.0573
CC(C)NC[C@@H](C(=O)N1CCN(c2ncnc3c2[C@H](C)C[C@H]3O)CC1)c1ccc(Cl)cc1 [Ipatasertib/GDC0068] (max 10 µM) | 0.387 | -0.236 | 0.066 | 0.306 | 0.635 | 0.925 | -0.58 | 0.704 | 0.607 | 0.499 | 0.133
C=CC(=O)Nc1ccc(C(=O)Nc2[nH]nc3c2CN(C(=O)N[C@H](CN(C)C)c2ccccc2)C3(C)C)cc1 [YKL-5-124] (max 10 µM) | 0.0082 | -0.604 | 0.0431 | -0.178 | -0.144 | -0.19 | -0.835 | 0.177 | -0.406 | -0.0428 | -0.146
CCc1cnn2c(NCc3ccc[n+]([O-])c3)cc(N3CCCC[C@H]3CCO)nc12 (max 1 µM) | -0.358 | -0.485 | -0.532 | 0.0907 | -0.285 | -0.42 | -0.275 | -0.577 | -0.667 | -0.21 | -0.211
CC(=O)c1c(C)c2cnc(Nc3ccc(N4CCN(CCOCCOCCOCCNC(=O)COc5cccc6c5C(=O)N(C5CCC(=O)NC5=O)C6=O)CC4)cn3)nc2n(C2CCCC2)c1=O (stereo not drawn) [BSJ-03-123] (max 10 µM) | 0.146 | 0.0546 | 0.156 | 0.0834 | -0.153 | -0.181 | -0.0849 | 0.28 | 0.236 | 0.132 | 0.0948
CN(C)C/C=C/C(=O)Nc1ccc(O[C@@H]2CCC[C@@H](Nc3ncc(Cl)c(-c4c[nH]c5ccccc45)n3)C2)cc1 [BSJ-01-175] (max 10 µM) | -0.368 | -0.712 | -0.322 | -0.201 | -0.28 | -0.562 | -0.804 | -0.254 | -0.864 | -0.77 | -0.719
Nc1ccc(-c2ccc3ncc4ccc(=O)n(-c5cccc(C(F)(F)F)c5)c4c3c2)cn1 [Torin2] (max 1 µM) | -0.152 | -0.147 | -0.0622 | 0.0177 | 0.0764 | -0.0262 | -0.964 | -0.249 | -0.0903 | -0.0085 | 0.0099
CC[C@@H]1C(=O)N(C)c2cnc(Nc3ccc(C(=O)N[C@H]4CC[C@H](N5CCN(CC6CC6)CC5)CC4)cc3OC)nc2N1C(C)C [Volasertib/BI6727] (max 1 µM) | -0.337 | -0.296 | -0.577 | 0.224 | -0.0817 | -0.0186 | -0.497 | -0.529 | -0.388 | -0.356 | -0.159
O=C1NC(=O)[C@@H](c2cn3c4c(cccc24)CCC3)[C@@H]1c1c[nH]c2ccccc12 [Tivantinib/ARQ197] (max 10 µM) | -0.282 | -0.566 | -0.592 | 0.114 | -0.161 | -0.0845 | -0.606 | -0.479 | -0.43 | -0.423 | -0.154
CN1CC[C@H](c2c(O)cc(O)c3c(=O)cc(-c4ccccc4Cl)oc23)[C@H](O)C1 [Flavopiridol] (max 1 µM) | -0.0935 | -0.13 | -0.21 | 0.027 | -0.408 | -0.441 | -0.389 | -0.0976 | -0.887 | -0.181 | -0.134
Cc1nc(Nc2ncc(C(=O)Nc3c(C)cccc3Cl)s2)cc(N2CCN(CCO)CC2)n1 [Dasatinib] (max 10 µM) | 0.0983 | 0.679 | -0.0421 | -0.197 | -0.0749 | -0.126 | 0.0805 | -0.401 | -0.237 | -0.112 | 0.496

Structure (SMILES) | GRmax, 72 h [1] [GR] | GRmax, 72 h [2] [GR] | GRmax, 72 h [3] [GR] | GRmax, 72 h [4] [GR] | GRmax, 72 h [5] [GR] | GRmax, 72 h [6] [GR] | GRmax, 72 h [7] [GR] | GRmax, 72 h [8] [GR] | GRmax, 72 h [9] [GR] | GRmax, 72 h [10] [GR] | GRmax, 72 h [11] [GR]
Cc1nc(-c2cn3c(n2)-c2ccc(-c4cnn(C(C)(C)C(N)=O)c4)cc2OCC3)n(C(C)C)n1 [Taselisib/GDC0032] (max 10 µM) | -0.413 | -0.152 | -0.143 | 0.0192 | 0.0336 | 0.0709 | -0.99 | -0.0629 | 0.0942 | -0.0501 | -0.105
Cc1nc(NC(=O)N2CCC[C@H]2C(N)=O)sc1-c1ccnc(C(C)(C)C(F)(F)F)c1 [Alpelisib/BYL719] (max 10 µM) | 0.344 | 0.979 | -0.151 | 0.0449 | 0.307 | 0.69 | -0.799 | 0.203 | 0.383 | 0.523 | -0.0332
COc1cc(N2CCN(C)CC2)ccc1Nc1ncc2c(n1)N(C)c1ccccc1C(=O)N2CC(F)(F)F [FMF-03-146-1] | 0.922 | 0.82 | 0.947 | 0.892 | 0.785 | 0.874 | 0.362 | 0.893 | 0.824 | 0.999 | 0.683
CN(C)CC[C@H](CSc1ccccc1)Nc1ccc(S(=O)(=O)NC(=O)c2ccc(N3CCN(Cc4ccccc4-c4ccc(Cl)cc4)CC3)cc2)cc1[N+](=O)[O-] [ABT-737] (max 10 µM) | 0.876 | 0.864 | 0.475 | 0.588 | 0.495 | -0.12 | 0.844 | -0.678 | 0.306 | 0.418 | 0.589
CO[C@@H](C)Cn1c(=O)n(C)c2cnc3ccc(-c4cncc(C(C)(C)O)c4)cc3c21 (max 10 µM) | -0.159 | -0.458 | -0.255 | -0.0355 | 0.0519 | -0.136 | -0.988 | 0.0061 | -0.216 | 0.0211 | -0.289
CN(C)C/C=C/C(=O)Nc1ccc(C(=O)Nc2cccc(Nc3ncc(Cl)c(-c4c[nH]c5ccccc45)n3)c2)cc1 [THZ1] (max 1 µM) | 0.107 | -0.486 | -0.293 | -0.0084 | -0.455 | -0.505 | -0.72 | -0.171 | -0.906 | -0.297 | -0.279
CS(=O)(=O)N1CCN(Cc2cc3nc(-c4cccc5[nH]ncc45)nc(N4CCOCC4)c3s2)CC1 [Pictilisib/GDC0941] (max 10 µM) | 0.0266 | -0.237 | -0.154 | -0.0303 | 0.126 | 0.305 | -0.938 | -0.167 | 0.13 | 0.0426 | -0.147
CN1CCN(C(=O)c2ccc3cc(CCNc4ncnc5ccc(C#N)cc45)ccc3c2)CC1 [senexin b] (max 10 µM) | 0.755 | 0.229 | 0.629 | 0.705 | 0.748 | 0.892 | 0.271 | 1.02 | 0.656 | 0.696 | 0.213
CC1(N)CCN(c2cnc(-c3cccc(Cl)c3Cl)c(N)n2)CC1 [SHP099] (max 10 µM) | 0.904 | 0.779 | 0.992 | 0.733 | 0.606 | 0.943 | 0.626 | 0.58 | 0.523 | 0.936 | 0.879
CNC(=O)c1cccc(-c2ccc3c(N4CCOC[C@@H]4C)nc(N4CCOC[C@@H]4C)nc3n2)c1 [AZD2014] (max 10 µM) | 0.201 | -0.0933 | -0.0465 | 0.0087 | 0.143 | 0.241 | -0.756 | 0.0715 | 0.0994 | 0.338 | -0.0708
O=C(c1cc(Cc2n[nH]c(=O)c3ccccc23)ccc1F)N1CCN(C(=O)C2CC2)CC1 [Olaparib/AZD2281] (max 10 µM) | 0.36 | 0.679 | 0.63 | 0.606 | 0.591 | 0.618 | 0.0945 | 0.631 | 0.0911 | 0.75 | 0.53
O=C1NC(=NCc2cccs2)SC1=Cc1ccc2ncccc2c1 [R0-3306] (max 10 µM) | 0.232 | 0.0254 | 0.0987 | 0.203 | -0.107 | 0.206 | 0.111 | 0.399 | -0.252 | -0.07 | -0.0261
CC(C)n1nc(-c2ccc3oc(N)nc3c2)c2c(N)ncnc21 [INK128/MLN0128] (max 3.162 µM) | 0.0529 | -0.0962 | -0.128 | -0.01 | 0.197 | 0.101 | -0.846 | -0.159 | 0.0256 | 0.219 | -0.0486
Nc1cc(C(F)(F)F)c(-c2cc(N3CCOCC3)nc(N3CCOCC3)n2)cn1 [Buparlisib/NVP-BKM120] (max 10 µM) | -0.388 | -0.422 | -0.356 | -0.0463 | -0.241 | -0.235 | -0.958 | -0.351 | -0.369 | -0.285 | -0.418
COc1cccc(OCCCN)c1-c1cc(Nc2cnc(C#N)cn2)n[nH]1 | 0.0443 | 0.084 | 0.929 | 0.0486 | -0.0816 | -0.172 | -0.386 | 0.111 | -0.419 | -0.112 | 0.428
Cc1nn(C)c(COc2ccc(N3CCN(S(=O)(=O)N(C)C)CC3)cc2)c1-c1cccc2c(CCCOc3cccc4ccccc34)c(C(=O)O)n(CCN3CCOCC3)c12 (max 10 µM) | 0.992 | 0.876 | 1 | 0.828 | -0.422 | 0.957 | 0.985 | 0.873 | 0.74 | 0.547 | 0.575
